Test results as given in article PMC10447463, “Data-mining unveils structure–property–activity correlation of viral infectivity enhancing self-assembling peptides” (Nature Communications, 2023).
Like-named read-outs stand apart in the source and are kept apart here.

How the values were obtained:
[1] = test system: HIV-1 infection of TZM-bl cells; test: HIV-1 infectivity enhancement assay, β-galactosidase luminescence; assay type: cell-based; conditions: for Log10 Infection Rel EF-C: HIV-1 infection of TZM-bl cells; for Rel-to EFC / n-fold to virus: Fig S8 panels B, D
[2] = assay type: physicochemical; parameters: key to Fibril / Fibril Formation / TEM 2cat / Fibril: 1 = fibrils present; 0 non-fibrillar structures; conditions: for Fibril: 1 = fibrils present
[3] = Turbidity, derived count rate of scattered light; assay type: physicochemical; conditions: for Log Count Rate: log of derived count rate
In short: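 Samples: 1 mg/mL in PBS pH 7.4 (from DMSO), 1 d at RT, then diluted in 1 mM KCl immediately before measurement. Triplicates, two independent runs averaged.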

[4] = Feb2021, 1.3 µM value relative to virus only (0 µM)
[5] = Feb2021, Log10 of infectivity relative to EF-C
[6] = Feb2021, n-fold enhancement relative to EF-C
[7] = Feb2021, n-fold infectivity relative to EF-C
[8] = Feb2021, unrounded values of the 1.3 µM column
[9] = Feb2021 run, infectivity n-fold relative to virus alone
[10] = Feb2021 run, log10 of infectivity relative to EF-C
[11] = Feb2021 run, n-fold infectivity relative to EF-C
[12] = infectivity class (low / medium / high) of each library peptide, main list in c1-c6, same classes repeated in sub-lists of sequences containing the hydrophobicity/charge patterns P+,H0,P+,H0,P0,H0,P0, P+,H0,P0,H0,P0,H0,P0, P+,H0,P0,H0
[13] = infectivity class (low / medium / high) of the peptide in the sequence-pattern analysis, Fig. S22-A4, class limits not given
[14] = log10 of HIV-1 infection of TZM-bl cells relative to EF-C, Fig S15 source data, asymmetric std dev errors
[15] = category 1 or 0 from count rate, key not given
[16] = derived count rate of scattered light, mean, std deviation in next column
[17] = derived count rate of scattered light, mean, std deviation in separate column
[18] = Feb2021, figures match the 1.3 µM column
[19] = Feb2021, infectivity relative to virus only
[20] = derived count rate of scattered light
[21] = infectivity enhancement relative to EF-C
[22] = infectivity n-fold relative to virus alone
[23] = Fig S8 panels A, C, asymmetric log errors
[24] = Fig S8 panels B, D, turbidity, derived count rate of scattered light
[25] = Feb2021, log10 of infectivity relative to EF-C

Substance | n-fold to virus (Feb2021) [1, 4] | Log10 of Rel to EFC (Feb2021) [1, 5] | Rel-to EFC (Feb-2021) [1, 6] | Rel-to EFC (Feb-2021) [1, 7] | Absolute Infectivity / RLU /s (Feb2021) [1, 8] [RLU /s] | n-fold to virus (Feb2021) [1, 9] | Log10 of Rel to EFC (Feb2021) [1, 10] | Rel-to EFC (Feb-2021) [1, 11] | infectivity [1, 12] | infectivity [1, 13] | Log10 Inf. rel. to EF-C [1, 14] | TEM: 1= fibrils, 0= aggregates (micelle), 0.5 = aggregates and fibrils, -1 = nothing obersved, STD prep [2] | Zeta Count Rate Category ([3]; category 1/0, no key printed) | Zeta Count Rate Category [3, 15] | Zeta Count Rate / kcps [3, 16] [kcps] | Zeta Count Rate / kcps [3, 17] [kcps] | Absolute Infectivity / RLU /s (Feb2021) [1, 18] [RLU /s] | n-fold to virus (Feb2021) [1, 19] | Zeta Count Rate Category ([3]; category 1 / 0, no key given) | Zeta Count Rate / kcps [3, 20] [kcps] | also measured
CKIKIQINMW [TM86] | 54.4 | 0.1122 | 1.295 | 1.295 | 7253 | 54.4 | 0.1122 | 1.295 | high | high | 0.1122 | 1 | 1 | 1 | 4915 | 4915 | – | – | – | – | –
KIKQII [msis21] | – | -2.308 | 0.004924 | 0.004924 | – | – | – | – | – | low | -2.308 | 0 | – | 1 | 122 | – | 100 | 0.2069 | 1 | 122 | Rel-to EFC (Feb-2021) ([1]; infectivity enhancement relative to EF-C (=1), Feb2021 run): 0.004924; n-fold to virus (Feb2021) ([1]; infectivity n-fold relative to virus only, Feb2021 run): 0.2069; Log10 of Rel to EFC (Feb2021) ([1]; log10 of infectivity relative to EF-C, Feb2021 run): -2.308; Zeta Count Rate / kcps ([3]; derived count rate from zeta measurement, mean): 122 kcps; Zeta Count Rate Category ([3]; key not given): 1
QCKIKQIINM [CK5] | – | -0.4555 | 0.3503 | 0.3503 | – | 14.72 | -0.4555 | 0.3503 | medium | – | -0.4555 | 1 | – | 1 | 20551.06667 | 20551.06667 | 11186.66667 | 14.72 | 1 | 20551.06667 | –
KFKFQFNMW | – | – | – | – | – | – | – | – | – | – | – | – | – | – | – | – | – | – | – | – | Rel-EFC ([1]; 1.3 µM peptide, infection relative to EF-C (QCKIKQIINMWQ = 1)): 0,45; Log10 Infection Rel EFC ([1]; 1.3 µM peptide, log10 of infection relative to EF-C): -0,35; Log Infectivity ([1]; Fig. S7 panel A (plotted against β-sheet content), Log10 infection relative to EF-C, TZM-bl cells, asymmetric std dev errors): -0.3503; Log10 Infection Rel EF-C ([1]; Log10 of infection rate relative to EF-C, Figure 3A source data): -0.35; Log10 Infection Rel EF-C ([1]; infection rate relative to EF-C, log10, data of Figure 2D): -0.3503; Log10 Infection Rel EF-C ([1]; infection rate relative to EF-C, log10, source data of Figure 2C): -0.3503; Log10 of Rel to EFC (Feb2021) ([1]; Log10 of infection relative to EF-C, all peptides of FigS16): -0.35; Abs. Inf. ([1]; absolute infection signal, HIV-1 on TZM-bl cells, β-galactosidase luminescence): 6690; Log10 Inf. rel. to EF-C ([1]; log10 of HIV-1 infection of TZM-bl cells relative to EF-C (EF-C = 0)): -0.3503; TEM 2cat ([2]; Fig S10 panel D): 1; Fibril / Fibril Formation ([2]; TEM, 1 mg/mL, uranyl acetate stain, qualitative): 1; Fibril ([2]; TEM, 0 = non-fibrillar): 1; Fibril ([2]; TEM, 0 = non-fibrillar structures): 1; TEM 2cat ([2]; category: fibrils present or non-fibrillar): 1; Log10 Count Rate ([3]; Log10 of derived count rate of scattered light (turbidity)): 2.785; Count Rate / kcps ([3]; derived count rate of scattered light at 633 nm, 173°, from zeta-potential measurement, 0.1 mg/mL in 1 mM KCl after 1 d at 1 mg/mL in PBS, turbidity / microscopic aggregation, mean of triplicate): 610 kcps; Log10 Count Rate ([3]; turbidity, Log10 of derived count rate of scattered light, Figure 3A source data): 2.785; Log10 Count Rate ([3]; turbidity, log10 of derived count rate of scattered light): 2.785
KFKFQFNMWQ [JG4] | 32.14 | -0.1164 | 0.7649 | 0.7649 | 20676.66667 | 32.14 | -0.1164 | 0.7649 | high | high | -0.1164 | 1 | 1 | 1 | 734.6 | 734.6 | – | – | – | 734.6 | Absolute Infectivity / RLU /s (Feb2021) ([1]; Feb2021 data set, in other rows equals the 1.3 µM column, mean, STD in separate column): 20676.66667 RLU /s; Rel-to EFC (Feb-2021) ([1]; Feb2021 data set, infectivity enhancement relative to EF-C): 0.7649; n-fold to virus (Feb2021) ([1]; Feb2021 data set, infectivity n-fold to virus alone): 32.14; Log10 of Rel to EFC (Feb2021) ([1]; Feb2021 data set, log10 of infectivity relative to EF-C): -0.1164; Rel-to EFC [1, 21]: 0.7649; n-fold to virus [1, 22]: 32.1399; TEM: 1= fibrils, 0= aggregates (micelle), 0.5 = aggregates and fibrils, -1 = nothing obersved, STD prep ([2]; TEM): 1; Log Count Rate [3, 23]: 2.866; Log Count Rate ([3]; Fig S8 panels B, D): 2.866; Count Rate [3, 24]: 734.63; Zeta Count Rate Category ([3]; category from count rate, key not given): 1
CHLHLQL [CN9] | 4.127 | – | – | 0.09822 | 2934 | – | – | – | low | – | -1.008 | 0.5 | 1 | – | 1155 | – | – | – | – | – | Log10 of Rel to EFC (Feb2021) [1, 25]: -1.008; Rel-to EFC [1, 21]: 0.09822; n-fold to virus [1, 22]: 4.127; Log Count Rate [3, 23]: 3.062; Log Count Rate ([3]; Fig S8 panels B, D): 3.062; Count Rate [3, 24]: 1154.63
MKFKFQF [DF5 / CK16] | 2.675 | – | – | 0.06366 | 1427 | – | – | – | low | – | -1.196 | 1 | 1 | – | 124 | – | – | – | – | – | Log10 of Rel to EFC (Feb2021) [1, 25]: -1.196
KAKAQANMWQ [JG3] | 0.3005 | -2.146 | 0.007152 | 0.007152 | 193.3 | 0.3005 | -2.146 | 0.007152 | low | – | -2.146 | 0.5 | 0 | 0 | 56.17 | 56.17 | – | – | – | – | –
CKIKQIINM [BL1] | – | -0.3035 | 0.4971 | 0.4971 | – | 20.89 | -0.3035 | 0.4971 | medium | – | -0.3035 | 1 | – | 1 | 9058 | 9058 | 11280 | 20.89 | 1 | 9058 | –
KLKQLL [KM27 / psis14] | – | -2.131 | – | 0.00739 | – | – | – | – | low | – | -2.131 | 0.5 | – | – | 319.9 | – | 196.7 | 0.3105 | 1 | 319.9 | Rel-to EFC (Feb-2021) ([1]; Feb2021, infectivity enhancement relative to EF-C): 0.00739; Zeta Count Rate Category ([3]; category 1 or 0 derived from the count rate, key not given): 1
QCKFKFQF [CK9] | 32.23 | -0.1152 | 0.767 | 0.767 | 20303.33333 | 32.23 | -0.1152 | 0.767 | – | high | -0.1152 | 1 | 1 | 1 | 2669 | 2669 | – | – | – | – | –
